ChEMBL document CHEMBL1128930, “4-cyanothiazolidides as very potent, stable inhibitors of dipeptidyl peptidase IV” (Bioorg Med Chem Lett, 1996)

How the values were obtained:
[1] = Half life period in aqueous solution; type: ADME; details: for half-life: aqueous solution
[2] = biological target: Dipeptidyl peptidase 4 (Homo sapiens, UniProt P27487); assay: Inhibition of human Dipeptidyl peptidase IV
Sequence of Dipeptidyl peptidase 4 (P27487 whole entry): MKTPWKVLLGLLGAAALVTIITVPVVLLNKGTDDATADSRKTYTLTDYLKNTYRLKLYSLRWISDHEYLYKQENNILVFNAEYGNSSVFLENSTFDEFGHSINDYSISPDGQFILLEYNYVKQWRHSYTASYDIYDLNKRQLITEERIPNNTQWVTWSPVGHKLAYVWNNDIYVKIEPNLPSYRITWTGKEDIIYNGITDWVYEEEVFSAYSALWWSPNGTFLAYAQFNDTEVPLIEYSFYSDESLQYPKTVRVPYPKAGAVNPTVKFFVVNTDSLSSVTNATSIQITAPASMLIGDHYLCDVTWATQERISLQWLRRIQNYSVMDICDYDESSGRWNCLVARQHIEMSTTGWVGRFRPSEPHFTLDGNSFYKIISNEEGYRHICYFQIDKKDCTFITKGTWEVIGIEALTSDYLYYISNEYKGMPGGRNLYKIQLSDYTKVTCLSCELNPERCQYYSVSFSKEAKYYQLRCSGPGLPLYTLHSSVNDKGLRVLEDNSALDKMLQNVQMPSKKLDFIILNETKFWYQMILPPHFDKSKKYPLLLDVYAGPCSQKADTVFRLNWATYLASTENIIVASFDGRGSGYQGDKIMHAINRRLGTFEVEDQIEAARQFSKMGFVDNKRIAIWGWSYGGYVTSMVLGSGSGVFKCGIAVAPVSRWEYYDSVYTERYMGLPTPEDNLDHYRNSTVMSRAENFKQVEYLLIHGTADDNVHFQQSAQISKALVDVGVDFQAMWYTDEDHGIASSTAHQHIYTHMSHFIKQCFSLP

Row | half-life [1] [h] | Ki [2] [µM] | T1/2 ([1]; buffer) [h] | SMILES
1 | > 48 | 6 | – | CCC(C)[C@H](N)C(=O)N1CSCCC1C#N (stereo partly drawn)
2 | > 48 | 0.45 | – | CCC(C)[C@H](N)C(=O)N1COC[C@H]1C#N (stereo partly drawn)
3 | 48 | – | – | CCC(C)[C@H](N)C(=O)N1CCC[C@H]1C#N (stereo partly drawn)
4 | > 48 | 0.005 | – | N#C[C@@H]1CSCN1C(=O)C(CCCCN)NC(=O)OCc1ccccc1 (stereo partly drawn)
5 | 5 | 0.0005 | – | N#C[C@@H]1CSCN1C(=O)C(N)C1CCCC1 (stereo partly drawn)
6 | 1.25 | 0.034 | – | CC[C@H](C)[C@H](N)C(=O)N1C[S+]([O-])C[C@H]1C#N (stereo in doubt; 7)
7 | – | 0.44 | 1.5 | CC[C@H](C)[C@H](N)C(=O)N1C[S+]([O-])C[C@H]1C#N (stereo in doubt; 9)
